Measured values as given in US5281710A, “Dynemicin analogs: synthesis, methods of preparation and use” (The Scripps Research Institute, priority 1992, dated 1994).
“Also recorded” adds a separate entry of the source. Like-named read-outs stand apart in the source and are kept apart here.

Key:
[1] = tested on: cancer cell lines; test: cells; format: cell-based; settings: for cytotoxicity (qualitative): cancer cell lines
Procedure: (§1) In addition to the screening already discussed, several of the before-described compounds and chimeras were screened against several or all of a panel of ten to twenty-five cancerous cell lines as target cells and seven "normal" cell preparations. This screening utilized a sulforhodamine B cytotoxidity assay as discussed below.
SULFORHODAMINE B CYTOTOXICITY ASSAY
a. Stock drug solutions were prepared by dissolving drug in the appropriate solvent (determined during chemical characterization studies) and sterile filtering the drug-solvent solution through a sterile 0.2μ filter unit. An aliquot was taken from each filtered drug solution and the O.D. was measured to determine the drug concentration.
f. Incubate (37° C., 5-10 percent CO2 in humidified incubator) plates for a total of 72 hours. Check plates at 24 hour intervals microscopically for signs of cytotoxicity.
(§2) IC50 values; i.e., the concentration of Compound required to kill one-half of the treated cells, were then calculated.
All other cells or cell lines were obtained from the American Type Culture Collection (ATCC) (all except CHO cells are human or mouse cancer cell lines as described by the ATC).
Tables 1 and 2 herein below provide average IC50 data from five to all ten of the above cancer cells lines for fused ring enediyne compounds disclosed herein. Those tables provide a generic structure and a description of the R group of that generic structure for each compound. Compound numbers as noted hereinbefore are also provided. Table 3 contains data for two fused-ring enediyne compounds (Compounds 47 and 120) as well as data for six chimers. Table 4 contains cancer cell and noraml cell cytotoxicity data for one select fused ring enediyne, Compound 153 against a number of "normal" cell preparations and tumor cell lines. Table 5 contains cancer cell and normal cell cytotoxicity data for another fused ring enediyne, Compound 250 against a similar panel of cells.

[2] = tested on: φX174 Form I DNA; test: φX174 supercoiled DNA cleavage, agarose gel; format: biochemical
Procedure: The ethereal solution of Compound 40 produced by the LiAlH4 reduction of Compound 21 (39 mg, 0.10 mmol) was evaporated in vacuo to dryness and the residue dissolved in THF (4 mL) to give a 25 mM solution of Compound 40, assuming complete conversion of Compound 21. […]
Thus, a vial containing a 50 micromolar per base pair solution […] of the same buffer solution and 2.0 microliters of a 5.0 millimolar ethanol solution of Compound 40.
[…] A 2.0 microliter portion of glycerol loading buffer solution containing bromothymol blue indicator was added to each vial. A 10 microliter aliquot was then drawn from each. Gel electrophoresis analysis of the aliquots was performed using a 1.0 percent agarose gel with ethidium bromide run at 115 volts for 1 hour. DNA cleavage was indicated by the formation of nicked relaxed circular DNA (form II) or linearized DNA (form III), which was detected by visual inspection of the gel under 310 nanometer ultraviolet light using ethidium bromide.

[3] = Chemical stability; format: physicochemical
[4] = tested on: MOLT-4 (Leukemia) cell line; test: cells; format: cell-based; settings: for potency against Molt-4 relative to the other cell lines: Molt-4 vs average of other cell lines; for IC50: read-out: IC50
Procedure: as §1, §2

[5] = Average data obtained from 5~10 cell lines, read-out: IC50 (average)
[6] = 5.0 mM, pH 8.5, 36 hours, 37° C.

O=C(OCCSc1ccccc1)N1c2ccccc2[C@@]23O[C@]24CCC[C@H]3C#C/C=C\C#C[C@H]14 (relative stereo) [Compound 21a]
IC50 [1, 5]: 63 µM

O=C(OCC[S+]([O-])c1ccccc1)N1c2ccccc2[C@@]23O[C@]24CCC[C@H]3C#C/C=C\C#C[C@H]14 (relative stereo) [Compound 21b]
IC50 [1, 5]: 32 µM

COc1ccc2c(c1)[C@@]13O[C@]14CCC[C@H]3C#C/C=C\C#C[C@@H]4N2C(=O)Oc1ccccc1 (relative stereo) [Compound 41a]
IC50 [1, 5]: 20 µM

CO[C@]12C#C/C=C\C#C[C@@H]3N(C(=O)Oc4ccccc4)c4ccccc4[C@]14O[C@@]34CCC2 (relative stereo) [Compound 46]
IC50 [1, 5]: 63 µM

O=C(OCCS(=O)(=O)c1ccccc1)N1c2ccccc2[C@@]23O[C@]24CCC[C@H]3C#Cc2ccccc2C#C[C@H]14 (relative stereo) [Compound 70]
DNA cleavage ([2]; basic conditions, pH 9.0): exhibited DNA cleaving properties
IC50 [1, 5]: 3.2 µM
cytotoxicity (qualitative) [1]: potent anticancer activity against a variety of cell lines

O=C(Oc1ccccc1)N1c2ccccc2[C@@]23O[C@]24CCC[C@@]3(O)C#Cc2ccccc2C#C[C@H]14 (relative stereo) [Compound 74]
IC50 [1, 5]: 20 µM

O=C(OCCSc1ccccc1)N1c2ccccc2[C@@]23O[C@]24CCC[C@H]3C#Cc2ccccc2C#C[C@H]14 (relative stereo) [Compound 77]
IC50 [1, 5]: 36 µM

O=C(OCCS(=O)(=O)c1ccccc1)N1c2ccccc2[C@@]23O[C@]24CCC[C@H]3C#Cc2cc3ccccc3cc2C#C[C@H]14 (relative stereo) [Compound 80]
DNA cleavage ([2]; basic conditions, pH 9.0): exhibited DNA cleaving properties
IC50 [1, 5]: 1.6 µM
cytotoxicity (qualitative) [1]: potent anticancer activity against a variety of cell lines

O=C(Oc1ccccc1)N1c2ccccc2[C@@]23O[C@]24CCC[C@@]3(O)C#Cc2cc3ccccc3cc2C#C[C@H]14 (relative stereo) [Compound 85]
IC50 [1, 5]: 20 µM

O=C(OCCSc1ccccc1)N1c2ccccc2[C@@]23O[C@]24CCC[C@H]3C#Cc2cc3ccccc3cc2C#C[C@H]14 (relative stereo) [Compound 88]
IC50 [1, 5]: 50 µM

CC(=O)O[C@]12C#C/C=C\C#C[C@@H]3N(C(=O)Oc4ccccc4)c4cc(O)ccc4[C@]14O[C@@]34CCC2 (relative stereo) [Compound 171]
DNA cleavage ([2]; pH 8.5, 24 or 48 hours, 37° C.): strong activity

COC(=O)COC12C#C/C=C\C#CC3N(C(=O)Oc4ccccc4)c4ccccc4C14OC34CCC2 (stereo not shown) [Compound 24b]
IC50 [1, 5]: 5 µM

C1#CC2Nc3ccccc3C34OC23CCCC4C#C/C=C\1 (stereo not shown) [Compound 40]
DNA cleavage ([2]; 5 mM, pH 8.0, 24 hours): significant DNA cleavage
DNA cleavage ([2]; pH 7.4 phosphate, 20 volume percent THF, 24 hours, 100-5000 μM): cleavage
chemical stability [3]: too labile for isolation; also recorded: decomposed at that temperature

COc1ccc2c(c1)C13OC14CCCC3C#C/C=C\C#CC4N2C(=O)OCCS(=O)(=O)c1ccccc1 (stereo not shown) [Compound 41b]
IC50 [1, 5]: 0.25 µM
potency against Molt-4 relative to the other cell lines [4]: 10,000 times

COc1ccc2c(c1)C13OC14CCCC3C#C/C=C\C#CC4N2C(=O)OCCS(=O)(=O)c1cccc2ccccc12 (stereo not shown) [Compound 41c]
IC50 [1, 5]: 0.2 µM
potency against Molt-4 relative to the other cell lines [4]: 10,000 times

COc1ccc2c(c1)C13OC14CCCC3C#C/C=C\C#CC4N2C(=O)OCCS(=O)(=O)c1ccc2ccccc2c1 (stereo not shown) [Compound 41d]
IC50 [1, 5]: 0.13 µM
potency against Molt-4 relative to the other cell lines [4]: 10,000 times

O=C(Oc1ccccc1)N1c2cc(O)ccc2C23OC24CCCC3(O)C#C/C=C\C#CC14 (stereo not shown) [Compound 42]
cleavage of double stranded DNA ([2]; 2 mM): shown to cause cleavage of double stranded DNA
DNA cleavage ([2]; 5 mM, pH 8.0, 24 hours): significant DNA cleavage
DNA cleavage [2, 6]: significant DNA cleaving action
chemical stability [3]: led to decomposition

O=C(Oc1ccccc1)N1c2cc(OCc3ccccc3[N+](=O)[O-])ccc2C23OC24CCCC3(O)C#C/C=C\C#CC14 (stereo not shown) [Compound 43]
DNA cleavage [2, 6]: inert
chemical stability [3]: rather labile

COC12C#C/C=C\C#CC3N(C(=O)OCCS(=O)(=O)c4ccccc4)c4ccccc4C14OC34CCC2 (stereo not shown) [Compound 47]
DNA cleavage ([2]; 5 mM, pH 8.0, 24 hours): diminished activity against DNA
IC50 [1, 5]: 5 µM

COC12C#C/C=C\C#CC3Nc4ccccc4C14OC34CCC2 (stereo not shown) [Compound 48]
chemical stability [3]: quite stable under basic or neutral conditions

O=C1C=CC23OC24C2(O)C#C/C=C\C#CC(N(C(=O)Oc5ccccc5)C3=C1)C4(O)CCC2 (stereo not shown) [Compound 54]
DNA cleaving activity [2]: exhibited DNA cleaving activity
DNA cleavage ([2]; 5 mM, pH 8.0, 24 hours): significant DNA cleavage
DNA cleavage [2, 6]: exhibited DNA cleaving capability
chemical stability [3]: sensitive but stable molecule under neutral conditions

COC12C#C/C=C\C#CC3N(C(=O)Oc4ccccc4)c4cc(O)ccc4C14OC34CCC2 (stereo not shown) [Compound 55]
DNA cleavage ([2]; 5 mM, pH 8.0, 24 hours): diminished activity against DNA

CC(C)(C)C(=O)Oc1ccc2c(c1)N(C(=O)Oc1ccccc1)C1C#C/C=C\C#CC3(O)CCCC14OC234 (stereo not shown) [Compound 59a]
DNA cleavage [2, 6]: inert
IC50 [1, 5]: 0.79 µM
IC50 ([4]; Homo sapiens, MOLT-4, Molt-4 leukemia cell line): 0.098 µM

CC(C)(C)C(=O)Oc1ccc2c(c1)N(C(=O)Oc1ccccc1)C1C#C/C=C\C#CC3CCCC14OC234 (stereo not shown) [Compound 59b]
DNA cleavage [2, 6]: inert
IC50 [1, 5]: 0.2 µM
potency against Molt-4 relative to the other cell lines [4]: 10,000 times

O=C(Oc1ccccc1)N1c2ccccc2C23OC24CCCC3C#Cc2ccccc2C#CC14 (stereo not shown) [Compound 76]
IC50 [1, 5]: 7.9 µM

C1#CC2Nc3ccccc3C34OC23CCCC4C#Cc2ccccc21 (stereo not shown) [Compound 76a]
chemical stability [3]: stable at 25 °C

O=C(Oc1ccccc1)N1c2ccccc2C23OC24CCCC3C#Cc2cc3ccccc3cc2C#CC14 (stereo not shown) [Compound 87]
IC50 [1, 5]: 3.2 µM

C1#CC2Nc3ccccc3C34OC23CCCC4C#Cc2cc3ccccc3cc21 (stereo not shown) [Compound 87a]
chemical stability [3]: stable at 25 °C

O=C(OCCS(=O)(=O)c1ccccc1)N1c2ccccc2C23OC24CCCC3(OCCO)C#C/C=C\C#CC14 (stereo not shown) [Compound 120]
IC50 [1, 5]: 40 µM

CCNC1COC(OC2C(OCCOC34C#CC=CC#CC5N(C(=O)OCCS(=O)(=O)c6ccccc6)c6ccccc6C36OC56CCC4)OC(C)C(=NOC3CC(O)C(SC(=O)c4c(C)c(I)c(OC5OC(C)C(O)C(OC)C5O)c(OC)c4OC)C(C)O3)C2O)CC1OC (stereo not shown) [Compound 126a]
IC50 [1, 5]: 44 µM

CCNC1COC(OC2C(OCCOC34C#CC=CC#CC5N(C(=O)OCCS(=O)(=O)c6ccccc6)c6ccccc6C36OC56CCC4)OC(C)C(=NOC3CC(O)C(SC(=O)c4c(C)c(I)c(OC5OC(C)C(O)C(OC)C5O)c(OC)c4OC)C(C)O3)C2O)CC1OC (stereo not shown) [Compound 126b]
IC50 [1, 5]: 8.7 µM

CCNC1COC(OC2C(OCCOC34C#CC=CC#CC5N(C(=O)OCCS(=O)(=O)c6ccccc6)c6ccccc6C36OC56CCC4)OC(C)C(NOC3CC(O)C(SC(=O)c4c(C)c(I)c(OC5OC(C)C(O)C(OC)C5O)c(OC)c4OC)C(C)O3)C2O)CC1OC (stereo not shown) [Compound 127a]
IC50 [1, 5]: 0.14 µM
cytotoxicity (qualitative) [1]: particularly effective
IC50 ([4]; Molt-4 leukemia cell line): 0.001 µM
potency against Molt-4 relative to the other cell lines [4]: about 100 times

CCNC1COC(OC2C(OCCOC34C#CC=CC#CC5N(C(=O)OCCS(=O)(=O)c6ccccc6)c6ccccc6C36OC56CCC4)OC(C)C(NOC3CC(O)C(SC(=O)c4c(C)c(I)c(OC5OC(C)C(O)C(OC)C5O)c(OC)c4OC)C(C)O3)C2O)CC1OC (stereo not shown) [Compound 127b]
IC50 [1, 5]: 7.6 µM
cytotoxicity (qualitative) [1]: particularly effective
IC50 ([4]; Molt-4 leukemia cell line): 0.0001 µM

CC(=O)OC12C#C/C=C\C#CC3N(C(=O)Oc4ccccc4)c4cc(O)ccc4C14OC34CCC2 (stereo not shown) [Compound 201]
DNA cleavage [2, 6]: significant DNA cleaving action

CC(=O)Oc1ccc2c(c1)N(C(=O)Oc1ccccc1)C1C#C/C=C\C#CC3(OC(C)=O)CCCC14OC234 (stereo not shown) [Compound 202]
DNA cleavage [2, 6]: inert

COc1cccc2c1C(=O)c1c(O)c3c(c(O)c1C2=O)C[C@@](O)(C(=O)CO)C[C@@H]3O[C@H]1C[C@H](N)[C@H](O)[C@H](C)O1 [Doxorubicin, reference compound]
IC50 ([1]; cancer cells, control drugs, read-out: Range of Average IC50 Values, Cancer Cells): 0.00016 to 0.098 µM

C=CS(=O)(=O)c1ccccc1 [phenyl vinyl sulfone, reference compound]
DNA cleavage ([2]; 1.0 mM): no DNA cleavage
DNA cleavage ([2]; 5.0 mM, pH 8.5 and 9.0, 48 hours, 37° C.): Form II DNA
